Values of other authors, collected in patent US20070071815A1 (priority 2004, published 2007).

## CN(CC(=O)O)C(=N)N [creatine, N-(aminoiminomethyl)-N-methylglycine]
  half-life of creatine in blood plasma: 1 to 1.5 h
